# pIC50: −log10 of the molar value.
# Molecular target: T1, ALK (baculovirus expressed human ALK kinase domain F1098-K1410) (Homo sapiens, UniProt Q9UM73)
# T1 construct: human ALK kinase domain F1098-K1410; made in house
# Assay: biochemical
# Conditions: 1 μM ATP, 4 μM poly-AEKY, 12 nM ALK, 2 hours at ambient temperature; read-out: ALK IC50
# How it was run: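 Baculovirus-expressed human ALK kinase domain (F1098-K1410) was run in a luciferase-coupled chemiluminescent format, with ATP near its KM. After 2 h at ambient temperature, remaining ATP was read by luciferase-luciferin luminescence. IC50 came from 10-point dose-response curves fitted to a four-parameter equation with Hill slope.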
# T1 sequence (Q9UM73 1098-1410): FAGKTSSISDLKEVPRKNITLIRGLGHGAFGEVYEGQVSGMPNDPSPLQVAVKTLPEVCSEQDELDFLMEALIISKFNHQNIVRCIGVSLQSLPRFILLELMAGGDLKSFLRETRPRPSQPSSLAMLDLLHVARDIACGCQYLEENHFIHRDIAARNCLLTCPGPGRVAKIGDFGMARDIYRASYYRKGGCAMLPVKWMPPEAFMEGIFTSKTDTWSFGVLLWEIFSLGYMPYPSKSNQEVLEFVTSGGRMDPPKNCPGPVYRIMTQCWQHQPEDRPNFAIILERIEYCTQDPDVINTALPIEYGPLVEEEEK
row,pIC50,SMILES
1,6.30 to 7.30,"Cc1cccc(CCNC(=O)c2coc(CNC(=O)COc3ccc(OC(F)(F)F)cc3)n2)c1 [Entry 151, N-[2-(3-methylphenyl)ethyl]-2-({[({4-[(trifluoromethyl)oxy]phenyl}oxy)acetyl]amino}methyl)-1,3-oxazole-4-carboxamide]"
2,> 7.30,"O=C(COc1ccc(OC(F)(F)F)cc1)NCc1nc(C(=O)NCCc2ccc(F)cc2)cs1 [Entry 24, N-[2-(4-fluorophenyl)ethyl]-2-({[({4-[(trifluoromethyl)oxy]phenyl}oxy)acetyl]amino}methyl)-1,3-thiazole-4-carboxamide]"
3,5.70 to 6.30,"CSCC[C@H](NC(=O)c1ccccc1)C(=O)NCc1nc(C(=O)NCCc2cccc(Cl)c2)cs1 [Entry 221, N-{[4-({[2-(3-chlorophenyl)ethyl]amino}carbonyl)-1,3-thiazol-2-yl]methyl}-N~2~-(phenylcarbonyl)methioninamide]"
4,< 5.70,"CO[C@@H]1[C@@H](C)/C=C(\C)[C@H](OC(N)=O)[C@@H](OC)/C=C\C=C(/C)C(=O)NC2=CC(=O)C=C(C2=O)[C@H](OC)[C@@H](C)C[C@H]1OC [Entry 301, (4E,6Z,8S,9S,10E,12S,13R,14R,16S,17R)-4,10,12,16-tetramethyl-8,13,14,17-tetrakis(methyloxy)-3,20,22-trioxo-2-azabicyclo[16.3.1]docosa-1(21),4,6,10,18-pentaen-9-yl carbamate, reference compound]"
5,6.30 to 7.30,"O=C(COc1cccc(Cl)c1)NCc1nc(C(=O)NCCc2cccc(Cl)c2)cs1 [Entry 161, N-[2-(3-chlorophenyl)ethyl]-2-[({[(3-chlorophenyl)oxy]acetyl}amino)methyl]-1,3-thiazole-4-carboxamide]"
6,5.70 to 6.30,"O=C(COc1ccc(OC(F)(F)F)cc1)NCc1nc(C(=O)NCCc2ccccc2Cl)co1 [Entry 273, N-[2-(2-chlorophenyl)ethyl]-2-({[({4-[(trifluoromethyl)oxy]phenyl}oxy)acetyl]amino}methyl)-1,3-oxazole-4-carboxamide]"
7,6.30 to 7.30,"CC(C)C(C)NC(=O)c1csc(CNC(=O)COc2ccc(OC(F)(F)F)cc2)n1 (stereo not drawn) [Entry 197, N-(1,2-dimethylpropyl)-2-({[({4-[(trifluoromethyl)oxy]phenyl}oxy)acetyl]amino}methyl)-1,3-thiazole-4-carboxamide]"
8,6.30 to 7.30,"Cc1ccc(Cl)cc1CNC(=O)c1csc(CNC(=O)COc2ccc(OC(F)(F)F)cc2)n1 [Entry 39, N-[(5-chloro-2-methylphenyl)methyl]-2-({[({4-[(trifluoromethyl)oxy]phenyl}oxy)acetyl]amino}methyl)-1,3-thiazole-4-carboxamide]"
9,5.70 to 6.30,"COc1cccc(CCNC(=O)c2coc(CNC(=O)COc3ccc(OC(F)(F)F)cc3)n2)c1 [Entry 234, N-{2-[3-(methyloxy)phenyl]ethyl}-2-({[({4-[(trifluoromethyl)oxy]phenyl}oxy)acetyl]amino}methyl)-1,3-oxazole-4-carboxamide]"
10,5.70 to 6.30,"CC(C)(C)OC(=O)NC1CCN(C(=O)c2csc(CNC(=O)COc3ccc(OC(F)(F)F)cc3)n2)CC1 [Entry 254, 1,1-dimethylethyl(1-{[2-({[({4-[(trifluoromethyl)oxy]phenyl}oxy)acetyl]amino}methyl)-1,3-thiazol-4-yl]carbonyl}piperidin-4-yl)carbamate]"
11,5.70 to 6.30,"CC(CNC(=O)c1coc(CNC(=O)COc2ccc(OC(F)(F)F)cc2)n1)c1ccccc1 (stereo not drawn) [Entry 259, N-(2-phenylpropyl)-2-({[({4-[(trifluoromethyl)oxy]phenyl}oxy)acetyl]amino}methyl)-1,3-oxazole-4-carboxamide]"
12,5.70 to 6.30,"O=C(COc1ccc(OC(F)(F)F)cc1)NCc1nc(C(=O)NCCCN2CCCC2=O)cs1 [Entry 286, N-[3-(2-oxopyrrolidin-1-yl)propyl]-2-({[({4-[(trifluoromethyl)oxy]phenyl}oxy)acetyl]amino}methyl)-1,3-thiazole-4-carboxamide]"

# From US7973061B2, “Anaplastic lymphoma kinase modulators and methods of use” (Exelixis, Inc., priority 2004, dated 2011)
